From patent publication US20170190671A1, “BIS(ARYL)CATECHOL DERIVATIVES AS HERBICIDES” (E I DU PONT DE NEMOURS AND COMPANY, priority 2014, published 2017)

Assays:
Assay in all cases: Test C preemergence
Format in all cases: in vivo
[1] = system: velvetleaf (Abutilon theophrasti); settings: Abutilon theophrasti, pre-emergence, preemergence, scale 0 to 100, read-out: Plant response rating, Velvetleaf; for pest or weed control at 31 g/ha: 31 g ai/ha; for pest or weed control at 62 g/ha: 62 g ai/ha; for pest or weed control at 125 g/ha: 125 g ai/ha; for pest or weed control at 250 g/ha: 250 g ai/ha
How it was run: (§1)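 Seeds sown in a loam soil and sand blend were treated preemergence; plants in peat-moss/vermiculite medium were sprayed at the 1- to 4-leaf stage (2-18 cm). Chemicals were in a non-phytotoxic surfactant-containing solvent. After 13 to 15 days in a greenhouse, injury was visually rated against controls on a 0-100 scale.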

corn (Zea mays) = settings: Zea mays, pre-emergence, 336 h, preemergence, scale 0 to 100; for Corn plant response rating (crop injury, 0 = no effect, 100 = complete kill) at 31 g/ha: 31 g ai/ha; for Corn plant response rating (crop injury, 0 = no effect, 100 = complete kill) at 62 g/ha: 62 g ai/ha; for Corn plant response rating (crop injury, 0 = no effect, 100 = complete kill) at 125 g/ha: 125 g ai/ha
How it was run: as §1

[2] = system: winter wheat (Triticum aestivum); settings: Triticum aestivum, pre-emergence, 336 h, preemergence, scale 0 to 100, read-out: Plant response rating, Wheat; for plant injury at 31 g/ha: 31 g ai/ha; for plant injury at 62 g/ha: 62 g ai/ha; for plant injury at 125 g/ha: 125 g ai/ha; for plant injury at 250 g/ha: 250 g ai/ha
How it was run: as §1

[3] = system: Italian ryegrass (Lolium multiflorum); settings: Lolium multiflorum, pre-emergence, 336 h, preemergence, scale 0 to 100, read-out: Plant response rating, Ryegrass, Italian; for pest or weed control at 31 g/ha: 31 g ai/ha; for pest or weed control at 62 g/ha: 62 g ai/ha; for pest or weed control at 125 g/ha: 125 g ai/ha; for pest or weed control at 250 g/ha: 250 g ai/ha
How it was run: as §1

[4] = system: giant foxtail (Setaria faberii); settings: Setaria faberi, pre-emergence, 336 h, preemergence, scale 0 to 100, read-out: Plant response rating, Foxtail, Giant; for pest or weed control at 31 g/ha: 31 g ai/ha; for pest or weed control at 62 g/ha: 62 g ai/ha; for pest or weed control at 125 g/ha: 125 g ai/ha
How it was run: as §1

[5] = system: barnyardgrass (Echinochloa crus-galli); settings: Echinochloa crus-galli, pre-emergence, preemergence, scale 0 to 100, read-out: Plant response rating, Barnyardgrass; for pest or weed control at 31 g/ha: 31 g ai/ha; for pest or weed control at 62 g/ha: 62 g ai/ha; for pest or weed control at 125 g/ha: 125 g ai/ha; for pest or weed control at 250 g/ha: 250 g ai/ha
How it was run: as §1

[6] = system: large (Lg) crabgrass (Digitaria sanguinalis); settings: Digitaria sanguinalis, pre-emergence, 336 h, preemergence, scale 0 to 100, read-out: Plant response rating, Crabgrass, Large; for pest or weed control at 31 g/ha: 31 g ai/ha; for pest or weed control at 62 g/ha: 62 g ai/ha; for pest or weed control at 125 g/ha: 125 g ai/ha
How it was run: as §1

[7] = system: galium (catchweed bedstraw, Galium aparine); settings: Galium, pre-emergence, 336 h, preemergence, scale 0 to 100, read-out: Plant response rating, Galium; for pest or weed control at 31 g/ha: 31 g ai/ha; for pest or weed control at 62 g/ha: 62 g ai/ha; for pest or weed control at 125 g/ha: 125 g ai/ha
How it was run: as §1

[8] = system: waterhemp (common waterhemp, Amaranthus rudis); settings: Amaranthus tuberculatus, pre-emergence, preemergence, scale 0 to 100, read-out: Plant response rating, Waterhemp; for pest or weed control at 31 g/ha: 31 g ai/ha; for pest or weed control at 62 g/ha: 62 g ai/ha; for pest or weed control at 125 g/ha: 125 g ai/ha; for pest or weed control at 250 g/ha: 250 g ai/ha
How it was run: as §1

[9] = system: lambsquarters (Chenopodium album); settings: Chenopodium album, pre-emergence, 336 h, preemergence, scale 0 to 100, read-out: Plant response rating, Lambsquarters; for pest or weed control at 31 g/ha: 31 g ai/ha; for pest or weed control at 62 g/ha: 62 g ai/ha; for pest or weed control at 125 g/ha: 125 g ai/ha
How it was run: as §1

soybean (Glycine max) = settings: Glycine max, pre-emergence, preemergence, scale 0 to 100, read-out: Plant response rating, Soybean; for plant injury at 31 g/ha: 31 g ai/ha; for plant injury at 62 g/ha: 62 g ai/ha; for plant injury at 125 g/ha: 125 g ai/ha; for plant injury at 250 g/ha: 250 g ai/ha
How it was run: as §1

[10] = system: morningglory (Ipomoea coccinea); settings: Ipomoea, pre-emergence, 336 h, preemergence, scale 0 to 100, read-out: Plant response rating, Morningglory; for pest or weed control at 31 g/ha: 31 g ai/ha; for pest or weed control at 62 g/ha: 62 g ai/ha; for pest or weed control at 125 g/ha: 125 g ai/ha
How it was run: as §1

[11] = system: johnsongrass (Sorghum halepense); settings: Sorghum halepense, pre-emergence, 336 h, preemergence, scale 0 to 100, read-out: Plant response rating, Johnsongrass; for pest or weed control at 31 g/ha: 31 g ai/ha; for pest or weed control at 62 g/ha: 62 g ai/ha; for pest or weed control at 125 g/ha: 125 g ai/ha
How it was run: as §1

[12] = system: ragweed (common ragweed, Ambrosia elatior); settings: Ambrosia artemisiifolia, pre-emergence, 336 h, preemergence, scale 0 to 100, read-out: Plant response rating, Ragweed; for pest or weed control at 31 g/ha: 31 g ai/ha; for pest or weed control at 62 g/ha: 62 g ai/ha; for pest or weed control at 125 g/ha: 125 g ai/ha; for pest or weed control at 250 g/ha: 250 g ai/ha
How it was run: as §1

[13] = system: pigweed (Amaranthus retroflexus); settings: Amaranthus retroflexus, pre-emergence, 336 h, preemergence, scale 0 to 100, read-out: Plant response rating, Pigweed; for pest or weed control at 31 g/ha: 31 g ai/ha; for pest or weed control at 62 g/ha: 62 g ai/ha; for pest or weed control at 125 g/ha: 125 g ai/ha
How it was run: as §1

Fc1cnc(Oc2c(Br)cccc2Oc2ncc(Cl)cn2)nc1 [Compound 22]
90%: plant injury at 250 g/ha [2] | pest or weed control at 250 g/ha [3] | plant injury at 125 g/ha (soybean (Glycine max)) | pest or weed control at 125 g/ha [12]
100%: pest or weed control at 125 g/ha [1] | pest or weed control at 250 g/ha [1] | pest or weed control at 31 g/ha [4] | pest or weed control at 62 g/ha [4] | pest or weed control at 125 g/ha [4] | pest or weed control at 125 g/ha [5] | pest or weed control at 250 g/ha [5] | pest or weed control at 31 g/ha [6] | pest or weed control at 62 g/ha [6] | pest or weed control at 125 g/ha [6] | pest or weed control at 62 g/ha [7] | pest or weed control at 125 g/ha [7] | pest or weed control at 31 g/ha [8] | pest or weed control at 62 g/ha [8] | pest or weed control at 125 g/ha [8] | pest or weed control at 250 g/ha [8] | pest or weed control at 62 g/ha [9] | pest or weed control at 125 g/ha [9] | pest or weed control at 31 g/ha [13] | pest or weed control at 62 g/ha [13] | pest or weed control at 125 g/ha [13]
20%: plant injury at 125 g/ha [2]
40%: Corn plant response rating (crop injury, 0 = no effect, 100 = complete kill) at 62 g/ha (corn (Zea mays))
95%: pest or weed control at 62 g/ha [5] | plant injury at 250 g/ha (soybean (Glycine max)) | pest or weed control at 125 g/ha [10] | pest or weed control at 250 g/ha [12]
75%: pest or weed control at 31 g/ha [9]
70%: pest or weed control at 31 g/ha [1] | plant injury at 62 g/ha (soybean (Glycine max)) | pest or weed control at 125 g/ha [11]
15%: plant injury at 62 g/ha [2]
10%: Corn plant response rating (crop injury, 0 = no effect, 100 = complete kill) at 31 g/ha (corn (Zea mays)) | pest or weed control at 31 g/ha [11]
5%: pest or weed control at 31 g/ha [3]
65%: pest or weed control at 62 g/ha [10]
60%: pest or weed control at 31 g/ha [5] | plant injury at 31 g/ha (soybean (Glycine max))
85%: pest or weed control at 62 g/ha [12]
80%: Corn plant response rating (crop injury, 0 = no effect, 100 = complete kill) at 125 g/ha (corn (Zea mays)) | pest or weed control at 125 g/ha [3]
98%: pest or weed control at 62 g/ha [1] | pest or weed control at 31 g/ha [7]
30%: pest or weed control at 62 g/ha [3] | pest or weed control at 62 g/ha [11]
55%: pest or weed control at 31 g/ha [12]
0%: plant injury at 31 g/ha [2] | pest or weed control at 31 g/ha [10]

Fc1cnc(Oc2c(Cl)cccc2Oc2ncc(Cl)cn2)nc1 [Compound 18, 5-chloro-2-[5-chloro-6-[(5-fluoro-2-pyrimidinyl)oxy]phenoxy]pyrimidine]
40%: Corn plant response rating (crop injury, 0 = no effect, 100 = complete kill) at 62 g/ha (corn (Zea mays))
95%: pest or weed control at 250 g/ha [3] | pest or weed control at 62 g/ha [9] | pest or weed control at 125 g/ha [9] | pest or weed control at 125 g/ha [12] | pest or weed control at 250 g/ha [12]
75%: pest or weed control at 31 g/ha [5]
30%: pest or weed control at 31 g/ha [3]
98%: pest or weed control at 31 g/ha [4]
60%: Corn plant response rating (crop injury, 0 = no effect, 100 = complete kill) at 125 g/ha (corn (Zea mays)) | plant injury at 31 g/ha (soybean (Glycine max)) | pest or weed control at 62 g/ha [10]
90%: plant injury at 125 g/ha (soybean (Glycine max)) | plant injury at 250 g/ha (soybean (Glycine max)) | pest or weed control at 125 g/ha [11]
10%: Corn plant response rating (crop injury, 0 = no effect, 100 = complete kill) at 31 g/ha (corn (Zea mays)) | pest or weed control at 31 g/ha [10]
50%: pest or weed control at 31 g/ha [11]
100%: pest or weed control at 62 g/ha [1] | pest or weed control at 125 g/ha [1] | pest or weed control at 250 g/ha [1] | pest or weed control at 62 g/ha [4] | pest or weed control at 125 g/ha [4] | pest or weed control at 62 g/ha [5] | pest or weed control at 125 g/ha [5] | pest or weed control at 250 g/ha [5] | pest or weed control at 31 g/ha [6] | pest or weed control at 62 g/ha [6] | pest or weed control at 125 g/ha [6] | pest or weed control at 31 g/ha [7] | pest or weed control at 62 g/ha [7] | pest or weed control at 125 g/ha [7] | pest or weed control at 31 g/ha [8] | pest or weed control at 62 g/ha [8] | pest or weed control at 125 g/ha [8] | pest or weed control at 250 g/ha [8] | pest or weed control at 62 g/ha [12] | pest or weed control at 31 g/ha [13] | pest or weed control at 62 g/ha [13] | pest or weed control at 125 g/ha [13]
80%: plant injury at 62 g/ha (soybean (Glycine max))
0%: plant injury at 31 g/ha [2]
85%: pest or weed control at 31 g/ha [1] | plant injury at 250 g/ha [2] | pest or weed control at 125 g/ha [3] | pest or weed control at 31 g/ha [9] | pest or weed control at 31 g/ha [12]
70%: plant injury at 125 g/ha [2] | pest or weed control at 62 g/ha [3] | pest or weed control at 125 g/ha [10] | pest or weed control at 62 g/ha [11]
15%: plant injury at 62 g/ha [2]
